Data from patent US11919902B2, “Aryl-bipyridine amine derivatives as phosphatidylinositol phosphate kinase inhibitors” (HiberCell, Inc., priority 2017, dated 2024).

Key:
GST tagged PIP4KtypeIIA = biological target: T1, GST tagged PIP4KtypeIIA (Homo sapiens, UniProt P48426); experiment: ADP-glo kinase assay PIP4K 2A (PIP4KtypeIIA inhibition assay); format: biochemical; conditions: Table 3; compounds listed under IC50 range headings; 10 uM ATP, 0.5 nM PIP4KIIA
T1 construct: made in house; host or cells: E. coli
T1 sequence (P48426 1-406): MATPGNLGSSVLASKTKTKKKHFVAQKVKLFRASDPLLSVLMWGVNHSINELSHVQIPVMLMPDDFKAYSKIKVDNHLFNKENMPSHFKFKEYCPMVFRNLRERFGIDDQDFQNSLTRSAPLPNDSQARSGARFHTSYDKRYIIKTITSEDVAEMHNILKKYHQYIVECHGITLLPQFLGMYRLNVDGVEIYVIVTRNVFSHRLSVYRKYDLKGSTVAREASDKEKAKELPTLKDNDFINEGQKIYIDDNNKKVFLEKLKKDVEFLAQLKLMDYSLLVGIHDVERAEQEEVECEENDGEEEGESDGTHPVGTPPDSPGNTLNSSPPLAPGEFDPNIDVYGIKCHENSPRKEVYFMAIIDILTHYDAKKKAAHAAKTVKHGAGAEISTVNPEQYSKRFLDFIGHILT
From the text: GST tagged PIP4KtypeIIA and B enzymes were overexpressed in E. Coli and purified to >80% homogeneity. Phosphatidyl inositol-5-phosphate (PI5P, Cat. #850152, Avanti Polar Lipids Inc.) was used as the lipid substrate and phosphatidyl ethanolamine (DOPE 18:1, Cat. #850725, Avanti Polar Lipids Inc.) was used as the carrier lipid for assays. Ultrapure ATP and GTP was purchased from Bellbrooke Labs. ADP Glo reagents were obtained from Promega. Transcreener FI reagent was obtained from Bellbrooke labs.
1. HEPES buffer mix: 200 mM HEPES pH 7.4, 50 mM MgCl2, 0.05% v/v triton×100
2. HNE buffer: 20 mM HEPES, pH 7.4, 100 mM NaCl, 0.5 mM EGTA
3. H:E buffer: 30 mM HEPES, pH 7.4, 1 mM EGTA
Enzyme preparation: GST-tagged PIP4KtypeIIA (5 uL, 1.43 mg/mL) was diluted (1:10) to 50 uL using HNE buffer. From the 1:10 diluted stock, a 6.4 uL aliquot was diluted further to 5 mL using HNE buffer to yield 5× enzyme stock (2.5 nM).
Lipid Preparation: In a 10 mL pyrex glass vial, lug of PI5P and lug of DOPE were suspended in 2.5 mL of HEPES buffer mix and 2.5 mL of H:E buffer. The contents were mixed and sonicated for 3 min to yield a translucent lipid stock.
Compound Preparation: Compounds were stored as 5 mM stocks in neat DMSO as room temperature in glass vials. 5 mM stocks were diluted to 2 mM and then serially diluted (3×) in neat DMSO in 96 well polypropylene plates. From the serially diluted stocks, 3 uL was delivered into 250 uL of 25% DMSO (in water) to generate 5× compound stocks. Typically, the highest compound conc. was 24 uM.
The assay volume was kept at 25 uL. To each well of the reaction plate, 10 uL of lipid stock (1:1 ratio PI5P:DOPE) was delivered. This was followed by the addition of 5 uL of compound in 25% DMSO. Then, to each well, 5 uL of 2.5 nM (5×) typeIIA enzyme was delivered. The contents were mixed well and incubated for 1 h at 27 C. After 1 h, reaction was initiated by adding 5 uL of 50 uM ATP and the contents were mixed well with a multi-channel pipetteman. The final concentration of the reagents are as follows: 50 mM HEPES, pH 7.3, 10 mM MgCl2, 20 mM NaCl, 0.01% v/v triton-X100, 5% DMSO, 10 uM ATP, 80 uM (2 ug) PI5P, 2 ug DOPE, and 0.5 nM PIP4KIIA. Typically, the highest conc. of compounds was 4.8 uM and the lowest conc. was 0.
After 1 hr, the reaction was quenched by adding 25 uL of ADP Glo reagent. The contents were incubated for 1 hr. Afterwards, 50 uL of kinase detection reagent was delivered. The contents were incubated for another hour. The luminescence was read using Molecular Devices Paradigm plate reader. […] The blanks were averaged and subtracted from all other wells. Using a calibration curve, RLU was converted to uM ADP (product). IC50 was calculated by plotting the residual activity (expressed as % No inhibitor control) vs. log [Inh. conc.]

GST tagged PIP4KtypeIIB = biological target: T2, GST tagged PIP4KtypeIIB (Homo sapiens, UniProt P78356); experiment: Trans-FI P kinase assay PIP4K2B (PIP4KtypeIIB inhibition assay); format: biochemical; conditions: Table 4; compounds listed under IC50 range headings; 100 uM GTP, 5 nM PIP4KIIB; read-out: Trans-FI P kinase assays: PIP4K2B IC50
T2 construct: made in house; host or cells: E. coli
T2 sequence (P78356 1-416): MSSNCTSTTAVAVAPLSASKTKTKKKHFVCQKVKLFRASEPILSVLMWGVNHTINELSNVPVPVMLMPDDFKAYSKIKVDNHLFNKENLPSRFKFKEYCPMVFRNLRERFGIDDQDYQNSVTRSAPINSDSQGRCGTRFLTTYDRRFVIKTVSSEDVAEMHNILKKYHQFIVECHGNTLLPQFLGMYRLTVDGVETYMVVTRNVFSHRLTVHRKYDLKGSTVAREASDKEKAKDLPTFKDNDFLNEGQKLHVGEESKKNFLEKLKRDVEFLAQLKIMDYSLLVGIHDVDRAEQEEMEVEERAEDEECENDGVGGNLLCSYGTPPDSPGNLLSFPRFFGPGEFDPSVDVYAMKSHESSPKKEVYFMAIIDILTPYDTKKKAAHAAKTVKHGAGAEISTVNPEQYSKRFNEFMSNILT
Summary of the method: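 Purified GST-PIP4KIIB (5 nM final), 1 h preincubation with compound at 27 C, then 2 h reaction with 100 uM GTP and 80 uM PI5P plus DOPE carrier lipid in pH 7.3 HEPES/MgCl2/Triton buffer with 5% DMSO. GDP read by Transcreener FI fluorescence against a calibration curve; IC50 from % no-inhibitor activity vs log concentration.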

[1] = biological target: T3, PIP4K2A (full length protein, SignalChem) (Homo sapiens, UniProt P48426); experiment: Kinase Assay PIP4K2 A (Sprint); ADP-Glo biochemical assay; conditions: Table 2; compounds listed under IC50 range headings
T3 construct: 4 nM PIP4K2A (full length protein, SignalChem); purchased SignalChem
T3 sequence (P48426 1-406): T1 sequence (P48426 1-406)
Summary of the method: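 Compounds (10-point, 3-fold dilutions) were pre-incubated 15 min at RT with an enzyme/substrate mix of 4 nM full-length PIP4K2A and 100 μM PI(5)P diC8 in 20 mM MOPS pH 7.2, 25 mM MgCl2, 0.005% Tween 20. A 60 μM ATP solution was added, reaction 1 h RT; ADP read by ADP-Glo luminescence, IC50 fitted from % inhibition vs DMSO.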

Compound	IC50 (GST tagged PIP4KtypeIIA)	IC50 (GST tagged PIP4KtypeIIB)	IC50 [1]
CC(C)c1cc(=O)n2ncc(-c3cncc(-c4ccc(N5CCCC5=O)cc4)c3)c2[nH]1 [Example 281, 5-isopropyl-3-(5-(4-(2-oxopyrrolidin-1-yl)phenyl)pyridin-3-yl)pyrazolo[1,5-a]pyrimidin-7(4H)-one]	1000 to 2500 nM	1000 to 2500 nM	
CN(C)C(=O)c1cnc2[nH]c(C3CC3)c(-c3cncc(-c4ccc(N5CCCC5=O)cc4)c3)c2c1 [Example 252, 2-cyclopropyl-N,N-dimethyl-3-(5-(4-(2-oxopyrrolidin-1-yl)phenyl)pyridin-3-yl)-1H-pyrrolo[2,3-b]pyridine-5-carboxamide]	10 to 100 nM	10 to 100 nM	
CN(C)C(=O)c1ccc(-c2cc(-c3ccnc4[nH]c(C(=O)NCC(N)=O)cc34)cnc2N)nc1 [Example 144, N-(2-amino-2-oxoethyl)-4-(2′-amino-5-(dimethylcarbamoyl)-[2,3′-bipyridin]-5′-yl)-1H-pyrrolo[2,3-b]pyridine-2-carboxamide]	100 to 1000 nM	10 to 100 nM	
O=C(NCCc1ccccc1)c1cc2c(-c3cncc(-c4ccc(N5CCCC5=O)cc4)c3)ccnc2[nH]1 [Example 236, 4-(5-(4-(2-oxopyrrolidin-1-yl)phenyl)pyridin-3-yl)-N-phenethyl-1H-pyrrolo[2,3-b]pyridine-2-carboxamide]	100 to 1000 nM	10 to 100 nM	
CN(C)C(=O)c1ccc(-c2cc(-c3ccnc4[nH]c(C(=O)NCC(=O)O)cc34)cnc2N)nc1 [Example 145, (4-(2′-amino-5-(dimethylcarbamoyl)-[2,3′-bipyridin]-5′-yl)-1H-pyrrolo[2,3-b]pyridine-2-carbonyl)glycine]	100 to 1000 nM	100 to 1000 nM	
CN(C)C(=O)c1cnc2c(c1)c(-c1cncc(-c3ccc(N4CCCC4=O)cc3)c1)c(C1CC1)n2C [Example 262, 2-cyclopropyl-N,N,1-trimethyl-3-(5-(4-(2-oxopyrrolidin-1-yl)phenyl)pyridin-3-yl)-1H-pyrrolo[2,3-b]pyridine-5-carboxamide]	2500 to 5000 nM	100 to 1000 nM	
Cc1c(-c2ccc(N3CCCC3=O)cc2)cncc1-c1cn(C)c2ncc(C(C)O)cc12 (stereo not shown) [Example 196, 1-(4-(5-(5-(1-hydroxyethyl)-1-methyl-1H-pyrrolo[2,3-b]pyridin-3-yl)-4-methylpyridin-3-yl)phenyl)pyrrolidin-2-one]	100 to 1000 nM		

The remaining lines, values ahead:

IC50 (GST tagged PIP4KtypeIIA)	IC50 (GST tagged PIP4KtypeIIB)	IC50 [1]	Compound
100 to 1000 nM	100 to 1000 nM		C[C@@H](O)c1cnc2c(c1)c(-c1cncc(-c3ccc(N4CCCC4=O)cc3)c1)cn2C [Example 293, (R)-1-(4-(5-(5-(1-hydroxyethyl)-1-methyl-1H-pyrrolo[2,3-b]pyridin-3-yl)pyridin-3-yl)phenyl)pyrrolidin-2-one]
	100 to 1000 nM	1000 to 2500 nM	O=C(COc1cccc2c1C(=O)N(C1CCC(=O)NC1=O)C2=O)NCCCCCCCCNC(=O)c1cc2c(-c3cncc(-c4ccc(N5CCCC5=O)cc4)c3)ccnc2[nH]1 (stereo not shown) [Example 395, N-(8-(2-((2-(2,6-dioxopiperidin-3-yl)-1,3-dioxoisoindolin-4-yl)oxy)acetamido)octyl)-4-(5-(4-(2-oxopyrrolidin-1-yl)phenyl)pyridin-3-yl)-1H-pyrrolo[2,3-b]pyridine-2-carboxamide]
	100 to 1000 nM	100 to 1000 nM	Cn1cc(-c2ccc(N)nc2)c2cc(-c3cncc(-c4ccc(N5CCCC5=O)cc4)c3)cnc21 [Example 347, 1-(4-(5-(3-(6-aminopyridin-3-yl)-1-methyl-1H-pyrrolo[2,3-b]pyridin-5-yl)pyridin-3-yl)phenyl)pyrrolidin-2-one]
	1 to 10 nM	5 to 100 nM	CN1CCn2c(cc3c(-c4cncc(-c5ccc(-c6nncn6C(C)(C)C)cc5)c4)ccnc32)C1=O [Example 377, 4-(5-(4-(4-(tert-butyl)-4H-1,2,4-triazol-3-yl)phenyl)pyridin-3-yl)-7-methyl-8,9-dihydropyrido[3′,2′:4,5]pyrrolo[1,2-a]pyrazin-6(7H)-one]
	100 to 1000 nM	5 to 100 nM	Cc1ccc2c(c1)N(C(=O)c1cc3c(-c4cncc(-c5ccc(N6CCCC6=O)cc5)c4)ccnc3[nH]1)CCO2 [Example 325, 1-(4-(5-(2-(6-methyl-3,4-dihydro-2H-benzo[b][1,4]oxazine-4-carbonyl)-1H-pyrrolo[2,3-b]pyridin-4-yl)pyridin-3-yl)phenyl)pyrrolidin-2-one]
	10 to 100 nM	5 to 100 nM	CNC(=O)c1cc2c(-c3cnc(N)c(-c4ccc(-c5nncn5CC(C)C)cc4)c3)ccnc2o1 [Example 366, 4-(6-amino-5-(4-(4-isobutyl-4H-1,2,4-triazol-3-yl)phenyl)pyridin-3-yl)-N-methylfuro[2,3-b]pyridine-2-carboxamide]
	100 to 1000 nM	100 to 1000 nM	Nc1ncc(-c2cnc3ncc(-c4cncc(-c5ccc(N6CCCC6=O)cc5)c4)cn23)cn1 [Example 334, 1-(4-(5-(3-(2-aminopyrimidin-5-yl)imidazo[1,2-a]pyrimidin-6-yl)pyridin-3-yl)phenyl)pyrrolidin-2-one]
	10 to 100 nM	100 to 1000 nM	CCN(C)C(=O)c1ccc(-c2cncc(-c3ccnc4c3cc3n4CCN(C)C3=O)c2)cc1 [Example 324, N-ethyl-N-methyl-4-(5-(7-methyl-6-oxo-6,7,8,9-tetrahydropyrido[3′,2′:4,5]pyrrolo[1,2-a]pyrazin-4-yl)pyridin-3-yl)benzamide]
	10 to 100 nM	100 to 1000 nM	CC(C)(O)c1cnc2[nH]c(C3CC3)c(-c3cncc(-c4ccc(N5CCCC5=O)cc4)c3)c2c1 [Example 338, 1-(4-(5-(2-cyclopropyl-5-(2-hydroxypropan-2-yl)-1H-pyrrolo[2,3-b]pyridin-3-yl)pyridin-3-yl)phenyl)pyrrolidin-2-one]
